Assay results published in US20220289678A1, “COMPOUND, POLYMER, AND ORGANIC MATERIAL, AND OPTICAL APPARATUS, OPTICAL PART, AND IMAGE DISPLAY APPARATUS USING THE ORGANIC MATERIAL” (Sony Group Corporation, priority 2019, published 2022).
Like-named read-outs stand apart in the source and are kept apart here.

Key:
[1] = Refractive index of compound, Abbe refractometer, calibration curve extrapolated; format: physicochemical; conditions: for Refractive index compared with compound (11-1) according to Test Example 15: comparison in words; for Refractive index: average refractive index to light of 589 nm, 25±1° C., acetone or chloroform solution, extrapolated to volume fraction 1
Experimental: Note that the refractive index can be measured by a critical angle method or a spectroscopic ellipsometry method. For example, in the critical angle method, measurement can be performed using an Abbe refractometer ER-1 manufactured by ERMA INC (measurement wavelengths are measured in visible light areas using 486 nm, 589 nm, 656 nm, and the like).
(§1) An acetone solution or a chloroform solution of each of the compounds according to Test Examples 1 to 15 was prepared, and the average refractive index to light of 589 nm at room temperature of 25±1° C. was measured by an Abbe refractometer (manufactured by ERMA INC., ER-1), and plotted against the volume fraction of each compound to prepare a calibration curve. Note that as the density of each compound, a value determined by a dry densitometer (AccuPyc II 1340-10CC (manufactured by Shimadzu Corporation)) was used. The calibration curve was extrapolated, and the refractive index when the volume fraction of each compound became 1 was used as the refractive index of each compound. The measurement results of the refractive index and density (g/cm^3) of each of the compounds according to Test Examples 1 to 15 are shown in Table 1 below.

[2] = Density by dry densitometer; format: physicochemical; conditions: dry densitometer AccuPyc II 1340-10CC
Experimental: as §1

[3] = Solubility in organic solvent, visual dissolution; format: physicochemical; conditions: ultrasonic stirring
Experimental: 20 mg of each of the compounds according to Test Examples 1 to 15 was weighed into a vial bottle, acetone was added to make a total amount of […], and then, the mixture was stirred with ultrasonic waves for 30 seconds. In the case where there was an undissolved product by visual recognition, a small amount of acetone was added thereto, and the mixture was stirred for another 30 seconds. The task described above was repeated, and the solubility was calculated from the total amount of solvents when all were dissolved.

[4] = commercial product, Osaka Gas Chemical Co., Ltd.; cited from earlier work

For `C=CC(=O)OCCn1c2ccc3ccccc3c2c2c3ccccc3ccc21` [(6-3)], which “Refractive index compared with compound (11-1) according to Test Example 15” value (shortened to “Refractive index compared with compound”) [1] is on record?
Its value is “higher than the refractive index of the compound (11-1)”.

What about the Density [2] of the same compound?
The Density was 1.22 g/mL.

With `C=CC(=O)Oc1cc(OC(=O)C=C)cc(-n2c3ccc4ccccc4c3c3c4ccccc4ccc32)c1` [(6-8)] as the compound, how does the “Refractive index compared with compound” value [1] read?
Its value is “higher than the refractive index of the compound (11-1)”.

What about the Density [2] of the same compound?
The Density was 1.31 g/mL.

What about the “Solubility Acetone” value [3] of the same compound?
Its value is 3 wt %.

For `C=CC(=O)Oc1cc(Cn2c3ccc4ccccc4c3c3c4ccccc4ccc32)cc(OC(=O)C=C)c1` [(10-1)], which “Refractive index compared with compound” value [1] is on record?
The value was “higher than the refractive index of the compound (11-1)”.

What about the Density [2] of the same compound?
The Density was 1.3 g/mL.

What about the “Solubility Acetone” value [3] of the same compound?
The value was 5 wt %.

What about the “Solubility Chloroform” value [3] of the same compound?
Its value is 17 wt %.

Which Refractive index [1] does the source give for `C=CC(=O)Oc1cc(CCn2c3ccc4ccccc4c3c3c4ccccc4ccc32)cc(OC(=O)C=C)c1` [(10-2)] here?
Its Refractive index is 1.73.

And the “Refractive index compared with compound” value [1]?
Its value is “higher than the refractive index of the compound (11-1)”.

And the Density [2]?
Its Density is 1.29 g/mL.

And the “Solubility Acetone” value [3]?
Its value is 20 wt %.

Which Refractive index [1] does the source give for `C=CC(=O)OCCOc1cc(Cn2c3ccc4ccccc4c3c3c4ccccc4ccc32)cc(OCCOC(=O)C=C)c1` [(10-3)] here?
Its Refractive index is 1.71.

What about the “Refractive index compared with compound” value [1] of the same compound?
Its value is “higher than the refractive index of the compound (11-1)”.

And the Density [2]?
The Density was 1.29 g/mL.

With `C=CC(=O)OCC(Cn1c2ccc3ccccc3c2c2c3ccccc3ccc21)OC(=O)C=C` (centres unmarked) [(10-4)] as the compound, how does the Refractive index [1] read?
Its Refractive index is 1.72.

What about the “Refractive index compared with compound” value [1] of the same compound?
Its value is “higher than the refractive index of the compound (11-1)”.

And the Density [2]?
The Density was 1.22 g/mL.

Which Refractive index [1] does the source give for `C=C(C)C(=O)OCC(Cn1c2ccc3ccccc3c2c2c3ccccc3ccc21)OC(=O)C(=C)C` (centres unmarked) [(10-5)] here?
The Refractive index was 1.72.

And the “Refractive index compared with compound” value [1]?
Its value is “higher than the refractive index of the compound (11-1)”.

What about the Density [2] of the same compound?
Its Density is 1.26 g/mL.

What about the “Solubility Chloroform” value [3] of the same compound?
The value was 19 wt %.

For `C=CC(=O)OCCOCC(Cn1c2ccc3ccccc3c2c2c3ccccc3ccc21)OCCOC(=O)C=C` (centres unmarked) [(10-6)], which “Refractive index compared with compound” value [1] is on record?
Its value is “higher than the refractive index of the compound (11-1)”.

Which “Refractive index compared with compound” value [1] does the source give for `C=C(C)C(=O)OCCOCC(Cn1c2ccc3ccccc3c2c2c3ccccc3ccc21)OCCOC(=O)C(=C)C` (centres unmarked) [(10-7)] here?
The value was “higher than the refractive index of the compound (11-1)”.

Which results are given for `C=CC(=O)OCCn1c2ccccc2c2c3ccccc3ccc21` [(10-8)]?
Refractive index [1]: 1.74; Refractive index compared with compound (11-1) according to Test Example 15 [1]: higher than the refractive index of the compound (11-1); Density [2]: 1.3 g/mL; Solubility Acetone [3]: 18 wt %

With `C=CC(=O)OCCn1c2ccccc2c2ccc3ccccc3c21` [(10-9)] as the compound, how does the Refractive index [1] read?
Its Refractive index is 1.74.

What about the “Refractive index compared with compound” value [1] of the same compound?
Its value is “higher than the refractive index of the compound (11-1)”.

What about the Density [2] of the same compound?
The Density was 1.31 g/mL.

And the “Solubility Acetone” value [3]?
Its value is 5 wt %.

What about the “Solubility Chloroform” value [3] of the same compound?
Its value is 13 wt %.

Which “Refractive index compared with compound” value [1] does the source give for `C=CC(=O)OCCOc1cc(OCCOC(=O)C=C)cc(-n2c3ccc4ccccc4c3c3c4ccccc4ccc32)c1` [(10-10)] here?
Its value is “higher than the refractive index of the compound (11-1)”.

What about the Density [2] of the same compound?
The Density was 1.27 g/mL.

Which “Refractive index compared with compound” value [1] does the source give for `C=CC(=O)OCCCCOc1cc(OCCCCOC(=O)C=C)cc(-n2c3ccc4ccccc4c3c3c4ccccc4ccc32)c1` [(10-11)] here?
Its value is “higher than the refractive index of the compound (11-1)”.

Which Refractive index [1] does the source give for `C=CC(=O)OCCOc1cc(OCCOC(=O)C=C)cc(-n2c3ccccc3c3c4ccccc4ccc32)c1` [(10-12)] here?
Its Refractive index is 1.69.

And the “Refractive index compared with compound” value [1]?
The value was “higher than the refractive index of the compound (11-1)”.

And the Density [2]?
Its Density is 1.26 g/mL.

What does the source list for `C=CC(=O)OCCn1c2ccccc2c2ccccc21` [(11-1), acrylic acid 2-(9H-carbazol-9-yl) ethyl, reference compound]?
Refractive index [1]: 1.68; Density [2]: 1.21 g/mL; Solubility Acetone [3]: 44 wt %

With “bisphenoxyethanol fluorene diacrylate [EA-0200]” as the compound, how does the Refractive index [4] read?
Its Refractive index is 1.62.
